Laboratory results as given in US11542240B2, “STK19 inhibitors for treatment of cancer” (TRUSTEES OF BOSTON UNIVERSITY, priority 2018, dated 2023).
Like-named read-outs stand apart in the source and are kept apart here.

Tests used:
Experiment in all cases: biochemical
Type in all cases: binding
[1] = target: panel of 468 diverse kinases (Homo sapiens, UniProt Q99558); settings: NIK; 1000 nM; read-out: Percent Control
[2] = target: panel of 468 diverse kinases (Homo sapiens, UniProt P36888, R834Q); settings: FLT3(R834Q); 1000 nM; read-out: Percent Control
[3] = target: panel of 468 diverse kinases (Homo sapiens, UniProt Q8N752); settings: CSNKIV1L; 1000 nM; read-out: Percent Control
[4] = target: panel of 468 diverse kinases (Homo sapiens, UniProt Q9C098); settings: DCAMKL3; 1000 nM; read-out: Percent Control
[5] = target: panel of 468 diverse kinases (Homo sapiens, UniProt P54756); settings: EPHA5; 1000 nM; read-out: Percent Control
Sequence of panel of 468 diverse kinases (Homo sapiens, UniProt P54756) (P54756 25-1037 limits assumed): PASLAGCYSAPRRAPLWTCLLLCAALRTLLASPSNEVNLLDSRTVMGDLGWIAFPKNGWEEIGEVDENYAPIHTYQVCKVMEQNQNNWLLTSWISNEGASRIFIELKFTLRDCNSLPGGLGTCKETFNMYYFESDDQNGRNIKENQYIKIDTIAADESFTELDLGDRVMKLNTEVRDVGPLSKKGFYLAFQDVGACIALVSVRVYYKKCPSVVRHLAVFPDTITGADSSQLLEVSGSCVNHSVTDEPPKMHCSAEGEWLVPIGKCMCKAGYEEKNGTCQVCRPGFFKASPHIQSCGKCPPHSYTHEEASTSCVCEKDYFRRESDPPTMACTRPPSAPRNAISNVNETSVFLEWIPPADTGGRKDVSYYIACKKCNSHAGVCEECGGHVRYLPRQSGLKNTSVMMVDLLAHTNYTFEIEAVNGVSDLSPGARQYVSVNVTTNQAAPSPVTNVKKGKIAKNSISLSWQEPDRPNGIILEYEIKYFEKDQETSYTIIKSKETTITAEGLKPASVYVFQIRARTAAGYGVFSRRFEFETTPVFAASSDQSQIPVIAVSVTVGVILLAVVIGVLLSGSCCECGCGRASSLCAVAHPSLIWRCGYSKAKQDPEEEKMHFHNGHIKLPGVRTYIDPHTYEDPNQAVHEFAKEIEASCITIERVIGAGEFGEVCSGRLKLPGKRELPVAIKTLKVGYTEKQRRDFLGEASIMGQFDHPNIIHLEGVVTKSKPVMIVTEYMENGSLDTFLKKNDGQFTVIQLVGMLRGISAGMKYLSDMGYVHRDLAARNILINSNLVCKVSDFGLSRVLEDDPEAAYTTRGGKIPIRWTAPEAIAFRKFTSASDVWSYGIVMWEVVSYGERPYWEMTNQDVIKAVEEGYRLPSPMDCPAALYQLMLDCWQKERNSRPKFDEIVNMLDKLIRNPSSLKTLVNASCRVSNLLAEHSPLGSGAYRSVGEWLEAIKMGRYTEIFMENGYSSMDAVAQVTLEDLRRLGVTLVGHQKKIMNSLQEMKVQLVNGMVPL

[6] = target: panel of 468 diverse kinases (Homo sapiens, UniProt P36888, N841I); settings: FLT3(N841I); 1000 nM; read-out: Percent Control
[7] = target: panel of 468 diverse kinases (Homo sapiens, UniProt P16591); settings: FER; 1000 nM; read-out: Percent Control
[8] = target: panel of 468 diverse kinases (Homo sapiens, UniProt P57078); settings: RIPK4; 1000 nM; read-out: Percent Control
[9] = target: panel of 468 diverse kinases (Homo sapiens, UniProt O15530); settings: PDPK1; 1000 nM; read-out: Percent Control
[10] = target: panel of 468 diverse kinases (Homo sapiens, UniProt P78362); settings: SRPK2; 1000 nM; read-out: Percent Control
[11] = target: panel of 468 diverse kinases (Homo sapiens, UniProt Q9UQM7); settings: CAMK2A; 1000 nM; read-out: Percent Control
[12] = target: panel of 468 diverse kinases (Homo sapiens, UniProt Q86Z02); settings: HIPK1; 1000 nM; read-out: Percent Control
[13] = target: panel of 468 diverse kinases (Homo sapiens, UniProt Q04759); settings: PRKCQ; 1000 nM; read-out: Percent Control
[14] = target: panel of 468 diverse kinases (Homo sapiens, UniProt O14920); settings: IKK-beta; 1000 nM; read-out: Percent Control
[15] = target: panel of 468 diverse kinases (Homo sapiens, UniProt Q9H2G2); settings: SLK; 1000 nM; read-out: Percent Control
[16] = target: panel of 468 diverse kinases (Homo sapiens, UniProt Q16512); settings: PKN1; 1000 nM; read-out: Percent Control
Sequence of panel of 468 diverse kinases (Homo sapiens, UniProt Q16512) (Q16512 2-942 limits assumed): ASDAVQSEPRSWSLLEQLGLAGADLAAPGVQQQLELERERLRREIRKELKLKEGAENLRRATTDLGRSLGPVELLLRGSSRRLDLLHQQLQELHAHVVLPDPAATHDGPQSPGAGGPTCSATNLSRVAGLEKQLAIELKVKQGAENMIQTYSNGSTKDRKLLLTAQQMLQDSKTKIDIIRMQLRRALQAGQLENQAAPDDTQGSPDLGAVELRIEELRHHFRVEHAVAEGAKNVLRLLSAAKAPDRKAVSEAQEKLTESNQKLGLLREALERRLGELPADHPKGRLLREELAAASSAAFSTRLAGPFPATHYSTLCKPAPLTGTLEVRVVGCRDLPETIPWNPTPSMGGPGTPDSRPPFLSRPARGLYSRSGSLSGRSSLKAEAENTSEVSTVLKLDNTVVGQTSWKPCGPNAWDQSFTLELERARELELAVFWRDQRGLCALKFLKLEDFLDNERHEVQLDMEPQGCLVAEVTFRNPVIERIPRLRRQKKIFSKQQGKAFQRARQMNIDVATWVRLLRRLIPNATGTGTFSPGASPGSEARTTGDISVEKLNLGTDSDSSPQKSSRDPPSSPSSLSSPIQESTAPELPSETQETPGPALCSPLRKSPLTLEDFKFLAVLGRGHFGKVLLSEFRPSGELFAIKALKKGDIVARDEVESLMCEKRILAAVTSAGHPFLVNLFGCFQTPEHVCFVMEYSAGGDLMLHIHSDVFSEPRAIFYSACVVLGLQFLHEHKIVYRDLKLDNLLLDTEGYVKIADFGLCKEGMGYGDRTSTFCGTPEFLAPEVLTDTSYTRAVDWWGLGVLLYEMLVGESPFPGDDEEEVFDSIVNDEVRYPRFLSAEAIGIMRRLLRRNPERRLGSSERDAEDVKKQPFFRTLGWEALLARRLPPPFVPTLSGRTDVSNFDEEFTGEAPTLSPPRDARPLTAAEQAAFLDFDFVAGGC

[17] = target: panel of 468 diverse kinases (Homo sapiens, UniProt P00519, Q252H); settings: 1000 nM, read-out: Percent Control
[18] = target: panel of 468 diverse kinases (Homo sapiens, UniProt P36888); settings: 1000 nM, read-out: Percent Control
[19] = target: panel of 468 diverse kinases (Homo sapiens, UniProt Q15375); settings: EPHA7; 1000 nM; read-out: Percent Control
Sequence of panel of 468 diverse kinases (Homo sapiens, UniProt Q15375) (Q15375 28-998 limits assumed): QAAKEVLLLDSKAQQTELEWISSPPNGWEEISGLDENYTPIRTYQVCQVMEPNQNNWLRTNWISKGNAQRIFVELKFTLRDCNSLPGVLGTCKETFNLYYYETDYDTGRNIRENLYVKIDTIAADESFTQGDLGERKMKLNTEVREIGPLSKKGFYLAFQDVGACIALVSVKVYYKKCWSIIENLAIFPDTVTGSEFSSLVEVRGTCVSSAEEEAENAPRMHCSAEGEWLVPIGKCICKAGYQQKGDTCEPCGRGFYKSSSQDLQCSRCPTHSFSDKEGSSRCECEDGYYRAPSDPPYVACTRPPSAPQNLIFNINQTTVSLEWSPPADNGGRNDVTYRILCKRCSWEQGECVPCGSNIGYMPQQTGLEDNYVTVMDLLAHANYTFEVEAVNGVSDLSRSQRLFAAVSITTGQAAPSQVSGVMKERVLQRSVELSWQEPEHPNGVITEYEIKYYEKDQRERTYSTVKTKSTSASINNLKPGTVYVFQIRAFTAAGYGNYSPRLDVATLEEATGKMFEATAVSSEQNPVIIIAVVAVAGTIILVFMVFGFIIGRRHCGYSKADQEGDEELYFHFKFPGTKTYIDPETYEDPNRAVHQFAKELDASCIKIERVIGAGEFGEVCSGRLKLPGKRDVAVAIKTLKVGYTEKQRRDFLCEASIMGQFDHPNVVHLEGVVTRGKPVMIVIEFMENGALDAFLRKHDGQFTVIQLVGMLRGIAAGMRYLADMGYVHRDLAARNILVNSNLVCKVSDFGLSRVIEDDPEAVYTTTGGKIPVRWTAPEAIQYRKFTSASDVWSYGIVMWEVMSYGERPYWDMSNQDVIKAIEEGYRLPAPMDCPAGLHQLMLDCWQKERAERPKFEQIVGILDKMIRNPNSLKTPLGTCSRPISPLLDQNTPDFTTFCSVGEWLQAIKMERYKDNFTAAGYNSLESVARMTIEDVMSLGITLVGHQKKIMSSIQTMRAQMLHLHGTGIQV

[20] = target: panel of 468 diverse kinases (Homo sapiens, UniProt Q9Y6R4); settings: MAP3K4; 1000 nM; read-out: Percent Control
[21] = target: panel of 468 diverse kinases (Homo sapiens, UniProt P06241); settings: FYN; 1000 nM; read-out: Percent Control
Sequence of panel of 468 diverse kinases (Homo sapiens, UniProt P06241) (P06241 2-537 limits assumed): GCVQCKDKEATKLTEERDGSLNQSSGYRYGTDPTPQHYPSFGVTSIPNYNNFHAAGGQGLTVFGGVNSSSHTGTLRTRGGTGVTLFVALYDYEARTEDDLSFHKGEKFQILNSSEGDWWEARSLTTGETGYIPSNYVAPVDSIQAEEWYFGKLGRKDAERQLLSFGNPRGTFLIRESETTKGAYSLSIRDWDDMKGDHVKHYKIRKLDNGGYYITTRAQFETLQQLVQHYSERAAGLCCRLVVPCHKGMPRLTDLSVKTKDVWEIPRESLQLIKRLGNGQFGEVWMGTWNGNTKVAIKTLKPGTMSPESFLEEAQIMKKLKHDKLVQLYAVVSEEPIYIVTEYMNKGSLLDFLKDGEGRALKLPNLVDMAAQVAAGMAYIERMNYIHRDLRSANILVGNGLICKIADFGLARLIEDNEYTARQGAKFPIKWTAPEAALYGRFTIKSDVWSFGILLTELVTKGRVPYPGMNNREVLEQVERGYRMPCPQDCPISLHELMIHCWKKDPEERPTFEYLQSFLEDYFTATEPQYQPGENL

[22] = target: panel of 468 diverse kinases (Homo sapiens, UniProt P15056); settings: BRAF; 1000 nM; read-out: Percent Control
[23] = target: panel of 468 diverse kinases (Homo sapiens, UniProt P80192); settings: MLK1; 1000 nM; read-out: Percent Control
[24] = target: panel of 468 diverse kinases (Homo sapiens, UniProt P53350); settings: PLK1; 1000 nM; read-out: Percent Control
Sequence of panel of 468 diverse kinases (Homo sapiens, UniProt P53350) (P53350 2-603 limits assumed): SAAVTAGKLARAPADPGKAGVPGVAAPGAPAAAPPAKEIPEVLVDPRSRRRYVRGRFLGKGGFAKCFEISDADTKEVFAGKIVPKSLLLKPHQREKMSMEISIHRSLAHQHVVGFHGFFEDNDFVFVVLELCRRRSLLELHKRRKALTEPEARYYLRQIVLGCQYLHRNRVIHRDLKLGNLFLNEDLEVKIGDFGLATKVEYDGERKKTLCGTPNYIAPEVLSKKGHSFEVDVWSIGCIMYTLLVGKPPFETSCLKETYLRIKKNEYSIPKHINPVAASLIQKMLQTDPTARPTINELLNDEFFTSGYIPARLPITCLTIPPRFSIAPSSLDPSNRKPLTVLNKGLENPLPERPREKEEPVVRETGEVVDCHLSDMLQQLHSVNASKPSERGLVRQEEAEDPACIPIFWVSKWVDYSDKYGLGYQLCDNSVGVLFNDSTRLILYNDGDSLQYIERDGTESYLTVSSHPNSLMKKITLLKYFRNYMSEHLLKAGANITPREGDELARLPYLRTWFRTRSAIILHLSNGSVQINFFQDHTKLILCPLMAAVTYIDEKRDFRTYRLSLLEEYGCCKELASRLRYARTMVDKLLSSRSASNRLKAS

[25] = target: panel of 468 diverse kinases (Homo sapiens, UniProt Q9UIK4); settings: DAPK2; 1000 nM; read-out: Percent Control
[26] = target: panel of 468 diverse kinases (Homo sapiens, UniProt Q9HCP0); settings: CSNK1G1; 1000 nM; read-out: Percent Control
[27] = target: panel of 468 diverse kinases (Homo sapiens, UniProt Q9Y3S1); settings: WNK2; 1000 nM; read-out: Percent Control
[28] = target: panel of 468 diverse kinases (Homo sapiens, UniProt P24941); settings: CDK2; 1000 nM; read-out: Percent Control
[29] = target: panel of 468 diverse kinases (Homo sapiens, UniProt O14965); settings: AURKA; 1000 nM; read-out: Percent Control
[30] = target: panel of 468 diverse kinases (Homo sapiens, UniProt Q00536); settings: PCTK1; 1000 nM; read-out: Percent Control
[31] = target: panel of 468 diverse kinases (Homo sapiens, UniProt Q9UBF8); settings: PIK4CB; 1000 nM; read-out: Percent Control
Sequence of panel of 468 diverse kinases (Homo sapiens, UniProt Q9UBF8) (Q9UBF8 2-816 limits assumed): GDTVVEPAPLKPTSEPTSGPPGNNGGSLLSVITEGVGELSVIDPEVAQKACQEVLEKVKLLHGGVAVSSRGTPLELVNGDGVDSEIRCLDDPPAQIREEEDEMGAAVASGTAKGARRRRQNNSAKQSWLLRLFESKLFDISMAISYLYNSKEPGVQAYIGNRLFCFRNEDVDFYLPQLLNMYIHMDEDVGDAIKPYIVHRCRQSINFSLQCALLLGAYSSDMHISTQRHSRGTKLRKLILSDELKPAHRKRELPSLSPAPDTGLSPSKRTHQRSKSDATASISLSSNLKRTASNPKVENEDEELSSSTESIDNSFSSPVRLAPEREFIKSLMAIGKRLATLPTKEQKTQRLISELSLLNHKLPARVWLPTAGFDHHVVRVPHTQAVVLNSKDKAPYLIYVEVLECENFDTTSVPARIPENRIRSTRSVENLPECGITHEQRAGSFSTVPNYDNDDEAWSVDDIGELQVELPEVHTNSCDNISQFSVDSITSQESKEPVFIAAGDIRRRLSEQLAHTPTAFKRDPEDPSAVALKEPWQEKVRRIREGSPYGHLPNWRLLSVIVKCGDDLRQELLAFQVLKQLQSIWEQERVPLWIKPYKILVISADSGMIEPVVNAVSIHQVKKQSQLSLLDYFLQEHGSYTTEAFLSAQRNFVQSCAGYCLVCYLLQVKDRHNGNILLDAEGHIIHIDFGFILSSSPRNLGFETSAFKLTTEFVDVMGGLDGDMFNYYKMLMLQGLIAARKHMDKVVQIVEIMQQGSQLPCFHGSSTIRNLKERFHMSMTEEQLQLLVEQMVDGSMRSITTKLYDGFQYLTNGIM

## COc1cc2nc(NC3CC3)nc(NC3CCN(C(C)C)CC3)c2cc1OC [Formula IV]
[1]
  remaining activity at 1 µM: 46%
[2]
  remaining activity at 1 µM: 40%
[3]
  remaining activity at 1 µM: 99%
[4]
  remaining activity at 1 µM: 92%
[5]
  remaining activity at 1 µM: 86%
[6]
  remaining activity at 1 µM: 63%
[7]
  remaining activity at 1 µM: 90%
[8]
  remaining activity at 1 µM: 99%
[9]
  remaining activity at 1 µM: 97%
[10]
  remaining activity at 1 µM: 80%
[11]
  remaining activity at 1 µM: 87%
[12]
  remaining activity at 1 µM: 100%
[13]
  remaining activity at 1 µM: 86%
[14]
  remaining activity at 1 µM: 66%
[15]
  remaining activity at 1 µM: 100%
[16]
  remaining activity at 1 µM: 99%
[17]; ABL1(Q252H)-nonphosphorylated
  remaining activity at 1 µM: 84%
[17]; ABL1(Q252H)-phosphorylated
  remaining activity at 1 µM: 69%
[18]; FLT3-autoinhibited
  remaining activity at 1 µM: 51%
[18]; FLT3
  remaining activity at 1 µM: 100%
[19]
  remaining activity at 1 µM: 93%
[20]
  remaining activity at 1 µM: 100%
[21]
  remaining activity at 1 µM: 100%
[22]
  remaining activity at 1 µM: 88%
[23]
  remaining activity at 1 µM: 98%
[24]
  remaining activity at 1 µM: 70%
[25]
  remaining activity at 1 µM: 93%
[26]
  remaining activity at 1 µM: 100%
[27]
  remaining activity at 1 µM: 58%
[28]
  remaining activity at 1 µM: 91%
[29]
  remaining activity at 1 µM: 56%
[30]
  remaining activity at 1 µM: 43%
[31]
  remaining activity at 1 µM: 100%
